Measured values: US9630922B2, “3-spiro-7-hydroxamic acid tetralins as HDAC inhibitors” (Forma Therapeutics, Inc., priority 2015, dated 2017)

biological target: T1, HDAC6 (Homo sapiens, UniProt Q9UBN7); assay: In vitro Histone Deacetylase Assay (enzymatic HDAC6 electrophoretic mobility shift assay); assay type: biochemical; conditions: full length human recombinant HDAC6, 1 nM enzyme, 2 μM peptide substrate RHKK(Ac)-NH2, 25° C.; read-out: HDAC6 activity range
T1 construct: Full length human recombinant HDAC6 protein was expressed in baculoviral system; made in house; host or cells: baculoviral system
T1 sequence (Q9UBN7 1-1215): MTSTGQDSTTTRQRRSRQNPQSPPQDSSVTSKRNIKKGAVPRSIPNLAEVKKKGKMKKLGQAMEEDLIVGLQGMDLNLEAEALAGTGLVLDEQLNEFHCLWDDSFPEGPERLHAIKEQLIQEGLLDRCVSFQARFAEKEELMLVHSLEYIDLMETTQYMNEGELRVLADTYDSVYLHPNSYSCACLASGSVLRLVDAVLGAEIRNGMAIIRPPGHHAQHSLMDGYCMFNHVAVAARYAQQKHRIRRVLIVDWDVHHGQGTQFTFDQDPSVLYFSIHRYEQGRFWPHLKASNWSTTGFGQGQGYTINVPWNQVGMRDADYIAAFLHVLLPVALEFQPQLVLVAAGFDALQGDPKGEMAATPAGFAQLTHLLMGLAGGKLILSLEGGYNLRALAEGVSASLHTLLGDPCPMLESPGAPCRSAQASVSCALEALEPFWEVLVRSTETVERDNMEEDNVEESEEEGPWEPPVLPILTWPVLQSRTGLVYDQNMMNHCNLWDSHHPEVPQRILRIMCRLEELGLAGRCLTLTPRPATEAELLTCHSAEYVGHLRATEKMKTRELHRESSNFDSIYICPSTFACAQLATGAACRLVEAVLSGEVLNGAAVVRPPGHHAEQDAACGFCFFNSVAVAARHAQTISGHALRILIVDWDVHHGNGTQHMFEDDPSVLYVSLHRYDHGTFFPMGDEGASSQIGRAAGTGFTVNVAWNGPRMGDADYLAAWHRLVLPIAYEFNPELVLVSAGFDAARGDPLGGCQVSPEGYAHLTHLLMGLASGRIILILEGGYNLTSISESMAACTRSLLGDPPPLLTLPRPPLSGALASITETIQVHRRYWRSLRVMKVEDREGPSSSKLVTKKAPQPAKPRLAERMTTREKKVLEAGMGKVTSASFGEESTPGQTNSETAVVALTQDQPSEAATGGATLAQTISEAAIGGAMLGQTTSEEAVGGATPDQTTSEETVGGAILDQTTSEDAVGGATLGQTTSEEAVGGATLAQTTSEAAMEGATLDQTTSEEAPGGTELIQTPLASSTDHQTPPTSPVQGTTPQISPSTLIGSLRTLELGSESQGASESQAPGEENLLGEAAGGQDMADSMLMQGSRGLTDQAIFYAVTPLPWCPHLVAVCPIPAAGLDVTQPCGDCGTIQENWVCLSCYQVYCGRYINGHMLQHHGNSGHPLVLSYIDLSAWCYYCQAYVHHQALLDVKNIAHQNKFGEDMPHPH
Summary of the method: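 Deacetylation was read by microfluidic mobility shift as product/(substrate+product) peak ratio and normalised to 0% and 100% inhibition controls. Reactions used 1 nM baculovirus-expressed full-length human HDAC6 and 2 μM labelled RHKK(Ac)-NH2 in pH 7.5 HEPES buffer with 1% DMSO at 25 °C. IC50 was from 4-parameter fits of 12 concentrations.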

IC50	SMILES
> 500 nM	CN1CCC2(CCc3cc(C(=O)NO)ccc3S2(=O)=O)C1=O (stereo not drawn) [Compound I-244, N-hydroxy-1-methyl-2-oxospiro[pyrrolidine-3,2′-thiochromane]-6′-carboxamide 1′,1′-dioxide]
> 500 nM	COc1ccc(CN2CCC3(CCc4cc(C(=O)NO)ccc4O3)CC2)cc1 [II-1, N-hydroxy-1′-(4-methoxybenzyl)spiro[chromane-2,4′-piperidine]-6-carboxamide]
> 500 nM	O=C(NO)c1ccc2c(c1)CCC1(CCN(Cc3nc4ccccc4[nH]3)CC1)O2 [II-2, 1′-((1H-benzo[d]imidazol-2-yl)methyl)-N-hydroxyspiro[chromane-2,4′-piperidine]-6-carboxamide]
> 500 nM	O=C(NO)c1ccc2c(c1)CCC1(CCN(C(=O)C3CCCCC3)CC1)O2 [II-3, 1′-(cyclohexanecarbonyl)-N-hydroxyspiro[chromane-2,4′-piperidine]-6-carboxamide]
> 500 nM	COc1ccc(C(=O)N2CCC3(CCc4cc(C(=O)NO)ccc4O3)CC2)cc1 [II-4, N-hydroxy-1′-(4-methoxybenzoyl)spiro[chromane-2,4′-piperidine]-6-carboxamide]
> 500 nM	COc1ccc(S(=O)(=O)N2CCC3(CCc4cc(C(=O)NO)ccc4O3)CC2)cc1 [II-5, N-hydroxy-1′-((4-methoxyphenyl)sulfonyl)spiro[chromane-2,4′-piperidine]-6-carboxamide]
100 to 500 nM	O=C(NO)c1ccc2c(c1)CCC1(CCN(S(=O)(=O)C3CCCCC3)CC1)O2 [II-6, 1′-(cyclohexylsulfonyl)-N-hydroxyspiro[chromane-2,4′-piperidine]-6-carboxamide]
100 to 500 nM	O=C(NO)c1ccc2c(c1)CCC1(CCN(C(=O)Nc3ccccc3)CC1)O2 [II-7, N6-hydroxy-N1′-phenylspiro[chromane-2,4′-piperidine]-1′,6-dicarboxamide]
> 500 nM	O=C(NO)c1ccc2c(c1)CCC1(CCN(C3CCCCC3)CC1)O2 [II-8, 1′-cyclohexyl-N-hydroxyspiro[chromane-2,4′-piperidine]-6-carboxamide]
> 500 nM	O=C(NO)c1ccc2c(c1)CCC1(CCN(C(=O)N3CC4(CCOCC4)c4ccccc43)CC1)O2 [II-9, N-hydroxy-1′-(2′,3′,5′,6′-tetrahydrospiro[indoline-3,4′-pyran]-1-carbonyl)spiro[chromane-2,4′-piperidine]-6-carboxamide]

Second part, the compound before the results:

SMILES	IC50
O=C(NO)c1ccc2c(c1)CCC1(CCNC1=O)O2 (stereo not drawn) [Compound I-236, N-hydroxy-2′-oxospiro[chromane-2,3′-pyrrolidine]-6-carboxamide]	100 to 500 nM
CN1CCC2(CCc3cc(C(=O)NO)ccc3O2)C1=O (stereo not drawn) [Compound I-237, N-hydroxy-1′-methyl-2′-oxospiro[chromane-2,3′-pyrrolidine]-6-carboxamide]	100 to 500 nM
O=C(NO)c1ccc2c(c1)CCC1(CCN(c3ccccc3)C1=O)S2(=O)=O (stereo not drawn) [Compound I-238, N-hydroxy-2-oxo-1-phenylspiro[pyrrolidine-3,2′-thiochromane]-6′-carboxamide 1′,1′-dioxide]	100 to 500 nM
O=C(NO)c1ccc2c(c1)CCC1(CCN(Cc3ccccc3)C1=O)S2(=O)=O (stereo not drawn) [Compound I-239, 1-benzyl-N-hydroxy-2-oxospiro[pyrrolidine-3,2′-thiochromane]-6′-carboxamide 1′,1′-dioxide]	100 to 500 nM
O=C(NO)c1ccc2c(c1)CCC1(CCN(c3cccnc3)C1=O)S2(=O)=O (stereo not drawn) [Compound I-240, N-hydroxy-2-oxo-1-(pyridin-3-yl)spiro[pyrrolidine-3,2′-thiochromane]-6′-carboxamide 1′,1′-dioxide]	100 to 500 nM
O=C(NO)c1ccc2c(c1)CCC1(CCN(CC3CCOCC3)C1=O)S2(=O)=O (stereo not drawn) [Compound I-241, N-hydroxy-2-oxo-1-((tetrahydro-2H-pyran-4-yl)methyl)spiro[pyrrolidine-3,2′-thiochromane]-6′-carboxamide 1′,1′-dioxide]	> 500 nM
O=C(NO)c1ccc2c(c1)CCC1(CCN(Cc3ccncc3)C1=O)S2(=O)=O (stereo not drawn) [Compound I-242, N-hydroxy-2-oxo-1-(pyridin-4-ylmethyl)spiro[pyrrolidine-3,2′-thiochromane]-6′-carboxamide 1′,1′-dioxide]	> 500 nM
O=C(NO)c1ccc2c(c1)CCC1(CCNC1=O)S2(=O)=O (stereo not drawn) [Compound I-243, N-hydroxy-2-oxospiro[pyrrolidine-3,2′-thiochromane]-6′-carboxamide 1′,1′-dioxide]	> 500 nM
